Data from ChEMBL document CHEMBL3991601, “The target landscape of clinical kinase drugs” (Science, 2017).
Activity calls are given as the source filed them.

Assays:
[1] = target: Ras-related protein Rab-6A (Homo sapiens, UniProt P20340)
[2] = target: Serine/threonine-protein kinase/endoribonuclease IRE2 (Homo sapiens, UniProt Q76MJ5)
[3] = target: GTP-binding nuclear protein Ran (Homo sapiens, UniProt P62826)
[4] = target: Serine/threonine-protein kinase 26 (Homo sapiens, UniProt Q9P289)
[5] = target: T1, Tyrosine-protein kinase Tec (Homo sapiens, UniProt P42680)
T1 sequence (P42680 whole entry): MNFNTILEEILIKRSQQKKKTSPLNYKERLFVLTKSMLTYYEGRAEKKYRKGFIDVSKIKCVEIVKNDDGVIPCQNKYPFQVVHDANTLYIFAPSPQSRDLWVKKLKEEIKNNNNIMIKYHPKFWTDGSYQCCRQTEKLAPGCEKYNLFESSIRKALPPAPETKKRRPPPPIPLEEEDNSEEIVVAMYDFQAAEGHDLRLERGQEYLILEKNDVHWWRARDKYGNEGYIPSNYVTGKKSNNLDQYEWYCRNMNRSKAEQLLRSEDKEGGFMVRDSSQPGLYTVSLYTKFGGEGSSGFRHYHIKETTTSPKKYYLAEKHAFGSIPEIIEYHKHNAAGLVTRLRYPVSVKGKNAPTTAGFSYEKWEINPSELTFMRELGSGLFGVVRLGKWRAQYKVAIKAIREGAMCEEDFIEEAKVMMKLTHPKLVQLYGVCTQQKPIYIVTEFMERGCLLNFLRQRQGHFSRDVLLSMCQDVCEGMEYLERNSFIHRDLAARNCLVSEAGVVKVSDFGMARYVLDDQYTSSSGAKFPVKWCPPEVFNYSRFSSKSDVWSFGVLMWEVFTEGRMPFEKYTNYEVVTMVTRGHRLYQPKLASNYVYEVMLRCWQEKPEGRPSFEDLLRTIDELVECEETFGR

[6] = target: Casein kinase I isoform gamma-1 (Homo sapiens, UniProt Q9HCP0)
Sequence of Casein kinase I isoform gamma-1 (Q9HCP0 whole entry, canonical isoform): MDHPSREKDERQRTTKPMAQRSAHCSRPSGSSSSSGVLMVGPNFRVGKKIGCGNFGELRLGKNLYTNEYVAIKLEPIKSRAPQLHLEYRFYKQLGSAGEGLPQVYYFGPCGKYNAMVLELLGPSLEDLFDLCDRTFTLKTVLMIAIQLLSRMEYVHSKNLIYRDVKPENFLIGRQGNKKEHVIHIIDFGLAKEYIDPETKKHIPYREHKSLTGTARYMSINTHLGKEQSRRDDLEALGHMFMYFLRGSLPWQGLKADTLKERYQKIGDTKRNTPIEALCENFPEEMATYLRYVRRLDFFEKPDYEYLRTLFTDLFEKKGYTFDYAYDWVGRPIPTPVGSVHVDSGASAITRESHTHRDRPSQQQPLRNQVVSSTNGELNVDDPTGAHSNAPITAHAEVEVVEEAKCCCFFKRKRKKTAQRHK

[7] = target: T2, Bone morphogenetic protein receptor type-2 (Homo sapiens, UniProt Q13873)
T2 sequence (Q13873 whole entry): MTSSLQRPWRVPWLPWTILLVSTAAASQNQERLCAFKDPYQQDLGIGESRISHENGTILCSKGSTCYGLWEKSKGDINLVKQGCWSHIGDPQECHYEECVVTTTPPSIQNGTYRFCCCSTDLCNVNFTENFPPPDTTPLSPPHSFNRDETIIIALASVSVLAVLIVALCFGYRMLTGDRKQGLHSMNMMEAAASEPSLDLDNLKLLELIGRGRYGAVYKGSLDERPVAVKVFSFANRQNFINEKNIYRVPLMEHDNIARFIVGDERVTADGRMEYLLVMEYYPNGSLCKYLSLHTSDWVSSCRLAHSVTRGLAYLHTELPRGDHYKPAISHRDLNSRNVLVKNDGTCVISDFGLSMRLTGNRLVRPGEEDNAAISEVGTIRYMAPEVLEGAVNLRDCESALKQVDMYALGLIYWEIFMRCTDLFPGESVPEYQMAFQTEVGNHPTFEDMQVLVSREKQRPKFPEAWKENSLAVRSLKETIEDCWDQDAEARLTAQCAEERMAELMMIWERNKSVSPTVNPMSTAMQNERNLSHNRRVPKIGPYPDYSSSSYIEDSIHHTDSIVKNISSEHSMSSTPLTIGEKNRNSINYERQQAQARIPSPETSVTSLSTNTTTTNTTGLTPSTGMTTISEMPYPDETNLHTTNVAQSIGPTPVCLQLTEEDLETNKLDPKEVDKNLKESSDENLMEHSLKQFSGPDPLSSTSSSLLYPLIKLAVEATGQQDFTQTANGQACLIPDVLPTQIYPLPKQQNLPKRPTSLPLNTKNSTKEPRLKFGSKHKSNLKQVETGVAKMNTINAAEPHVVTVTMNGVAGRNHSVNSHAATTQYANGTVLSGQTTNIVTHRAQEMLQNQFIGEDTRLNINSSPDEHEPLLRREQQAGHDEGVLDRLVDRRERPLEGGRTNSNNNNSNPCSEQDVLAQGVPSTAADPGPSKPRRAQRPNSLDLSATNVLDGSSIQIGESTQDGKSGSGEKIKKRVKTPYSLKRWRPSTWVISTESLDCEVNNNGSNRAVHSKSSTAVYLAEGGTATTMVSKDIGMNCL

[8] = target: T3, Ras-related protein Rab-27A (Homo sapiens, UniProt P51159)
T3 sequence (P51159 whole entry): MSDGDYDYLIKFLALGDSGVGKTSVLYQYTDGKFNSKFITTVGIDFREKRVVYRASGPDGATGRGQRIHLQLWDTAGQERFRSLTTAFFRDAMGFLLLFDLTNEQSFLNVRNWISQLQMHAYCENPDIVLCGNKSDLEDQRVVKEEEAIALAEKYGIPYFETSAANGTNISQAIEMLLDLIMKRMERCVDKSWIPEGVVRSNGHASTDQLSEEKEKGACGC

[9] = target: T4, Acyl-CoA dehydrogenase family member 11 (Homo sapiens, UniProt Q709F0)
T4 sequence (Q709F0 whole entry): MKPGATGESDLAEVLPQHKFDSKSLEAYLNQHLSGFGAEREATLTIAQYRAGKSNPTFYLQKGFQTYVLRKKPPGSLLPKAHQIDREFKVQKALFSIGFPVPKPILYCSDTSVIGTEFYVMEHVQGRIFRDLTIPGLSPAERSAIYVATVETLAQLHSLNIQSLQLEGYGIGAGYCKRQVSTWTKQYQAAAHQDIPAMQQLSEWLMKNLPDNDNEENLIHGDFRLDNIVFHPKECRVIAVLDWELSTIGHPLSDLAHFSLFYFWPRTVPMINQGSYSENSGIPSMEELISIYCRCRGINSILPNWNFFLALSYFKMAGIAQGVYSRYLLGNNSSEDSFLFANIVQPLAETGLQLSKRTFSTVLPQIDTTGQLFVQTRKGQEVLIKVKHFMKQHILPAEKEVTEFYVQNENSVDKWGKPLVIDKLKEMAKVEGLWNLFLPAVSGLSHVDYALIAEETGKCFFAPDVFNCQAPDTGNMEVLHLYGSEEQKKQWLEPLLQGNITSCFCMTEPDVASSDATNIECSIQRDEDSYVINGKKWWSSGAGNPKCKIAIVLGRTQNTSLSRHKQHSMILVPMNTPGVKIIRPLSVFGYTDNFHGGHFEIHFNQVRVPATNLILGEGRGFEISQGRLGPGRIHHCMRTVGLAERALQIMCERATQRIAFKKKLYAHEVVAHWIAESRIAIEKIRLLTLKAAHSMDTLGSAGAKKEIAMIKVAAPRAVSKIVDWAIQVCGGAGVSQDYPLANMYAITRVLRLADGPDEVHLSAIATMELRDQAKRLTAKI

Actin-related protein 2 = Actin-related protein 2 (Homo sapiens, UniProt P61160)
Also: in the data inactive means no Kd found up to 30 µM.

Sequence of Serine/threonine-protein kinase 26 (Q9P289 whole entry): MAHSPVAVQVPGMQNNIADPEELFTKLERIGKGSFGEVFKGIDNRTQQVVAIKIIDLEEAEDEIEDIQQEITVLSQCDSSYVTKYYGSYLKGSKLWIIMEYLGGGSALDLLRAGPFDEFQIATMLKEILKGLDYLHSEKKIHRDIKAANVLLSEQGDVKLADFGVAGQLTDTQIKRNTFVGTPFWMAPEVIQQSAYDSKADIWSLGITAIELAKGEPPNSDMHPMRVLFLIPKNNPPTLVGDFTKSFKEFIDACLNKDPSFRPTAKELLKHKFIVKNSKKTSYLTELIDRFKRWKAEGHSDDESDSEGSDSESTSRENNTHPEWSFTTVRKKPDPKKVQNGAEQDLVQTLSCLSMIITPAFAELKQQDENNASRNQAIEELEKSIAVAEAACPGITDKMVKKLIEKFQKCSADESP
Sequence of Serine/threonine-protein kinase/endoribonuclease IRE2 (Q76MJ5 whole entry): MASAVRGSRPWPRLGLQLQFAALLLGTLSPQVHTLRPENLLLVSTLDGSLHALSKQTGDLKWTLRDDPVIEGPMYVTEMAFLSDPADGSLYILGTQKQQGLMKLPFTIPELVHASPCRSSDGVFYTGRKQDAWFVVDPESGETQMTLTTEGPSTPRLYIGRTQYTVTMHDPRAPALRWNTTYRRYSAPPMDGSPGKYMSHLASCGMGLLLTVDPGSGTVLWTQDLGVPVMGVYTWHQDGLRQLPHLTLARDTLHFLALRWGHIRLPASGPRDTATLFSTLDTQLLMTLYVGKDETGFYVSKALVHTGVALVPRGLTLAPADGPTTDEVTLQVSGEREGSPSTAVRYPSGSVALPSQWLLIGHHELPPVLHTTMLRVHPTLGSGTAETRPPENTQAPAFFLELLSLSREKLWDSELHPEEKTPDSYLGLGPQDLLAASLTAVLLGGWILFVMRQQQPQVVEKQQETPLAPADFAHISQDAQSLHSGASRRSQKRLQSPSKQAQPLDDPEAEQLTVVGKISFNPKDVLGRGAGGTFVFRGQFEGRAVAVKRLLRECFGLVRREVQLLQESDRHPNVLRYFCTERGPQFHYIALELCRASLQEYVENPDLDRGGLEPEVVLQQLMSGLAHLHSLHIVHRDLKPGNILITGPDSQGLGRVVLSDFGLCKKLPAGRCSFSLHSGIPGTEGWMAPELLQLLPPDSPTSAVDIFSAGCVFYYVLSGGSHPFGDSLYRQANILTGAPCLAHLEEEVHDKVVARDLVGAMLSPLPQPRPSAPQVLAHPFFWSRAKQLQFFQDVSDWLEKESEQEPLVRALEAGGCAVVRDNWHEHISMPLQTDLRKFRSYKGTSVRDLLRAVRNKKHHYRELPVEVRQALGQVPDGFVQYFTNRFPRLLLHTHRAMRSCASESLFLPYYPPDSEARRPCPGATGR
Sequence of Ras-related protein Rab-6A (P20340 whole entry): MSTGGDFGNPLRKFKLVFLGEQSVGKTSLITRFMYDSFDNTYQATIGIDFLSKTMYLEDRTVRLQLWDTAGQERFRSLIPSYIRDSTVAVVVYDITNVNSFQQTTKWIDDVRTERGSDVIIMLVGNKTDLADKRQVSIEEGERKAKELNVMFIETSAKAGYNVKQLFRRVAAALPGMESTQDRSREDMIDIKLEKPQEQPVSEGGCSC

| Structure (SMILES) | Kd [1] | Kd [2] | Kd [3] | Kd [4] | Kd [5] | Kd [6] | Kd [7] | Kd [8] | Kd [9] | Kd (Actin-related protein 2) |
| --- | --- | --- | --- | --- | --- | --- | --- | --- | --- | --- |
| Cn1cc(-c2ccc3nnc(C(F)(F)c4ccc5ncccc5c4)n3n2)cn1 [JNJ-38877605] | > 30 µM (inactive) | > 30 µM (inactive) | > 30 µM (inactive) | > 30 µM (inactive) | > 30 µM (inactive) | > 30 µM (inactive) | > 30 µM (inactive) | > 30 µM (inactive) | > 30 µM (inactive) | > 30 µM (inactive) |
| CNS(=O)(=O)Nc1nccc(Cc2c(C)c3ccc(Oc4ncccn4)cc3oc2=O)c1F [AVUTOMETINIB] | > 30 µM (inactive) | > 30 µM (inactive) | > 30 µM (inactive) | – | > 30 µM (inactive) | > 30 µM (inactive) | > 30 µM (inactive) | > 30 µM (inactive) | > 30 µM (inactive) | > 30 µM (inactive) |
| CCc1cnn2c(NCc3ccc[n+]([O-])c3)cc(N3CCCC[C@H]3CCO)nc12 [DINACICLIB] | > 30 µM (inactive) | > 30 µM (inactive) | > 30 µM (inactive) | 0.098 µM (active) | > 30 µM (inactive) | > 30 µM (inactive) | > 30 µM (inactive) | > 30 µM (inactive) | > 30 µM (inactive) | > 30 µM (inactive) |
| CNC(=O)c1ccc(C)c(-n2c(C)cc(OCc3ccc(F)cc3F)c(Br)c2=O)c1 [PH-797804] | > 30 µM (inactive) | > 30 µM (inactive) | > 30 µM (inactive) | > 30 µM (inactive) | > 30 µM (inactive) | > 30 µM (inactive) | > 30 µM (inactive) | – | > 30 µM (inactive) | > 30 µM (inactive) |
| CN1CCC(COc2cnc(-c3cccc(Cn4nc(-c5cccc(C#N)c5)ccc4=O)c3)nc2)CC1 [TEPOTINIB] | > 30 µM (inactive) | > 30 µM (inactive) | > 30 µM (inactive) | – | > 30 µM (inactive) | > 30 µM (inactive) | > 30 µM (inactive) | > 30 µM (inactive) | > 30 µM (inactive) | > 30 µM (inactive) |
| CNC(=O)c1ccc(-c2cnc3ncc(Cc4ccc5ncccc5c4)n3n2)cc1F [CAPMATINIB] | – | > 30 µM (inactive) | > 30 µM (inactive) | > 30 µM (inactive) | > 30 µM (inactive) | > 30 µM (inactive) | > 30 µM (inactive) | > 30 µM (inactive) | > 30 µM (inactive) | – |
| CC[C@H](Nc1ncnc2[nH]cnc12)c1nc2cccc(F)c2c(=O)n1-c1ccccc1 [IDELALISIB] | > 30 µM (inactive) | > 30 µM (inactive) | – | > 30 µM (inactive) | > 30 µM (inactive) | > 30 µM (inactive) | > 30 µM (inactive) | > 30 µM (inactive) | > 30 µM (inactive) | > 30 µM (inactive) |
| CN1N=C(N)c2cn([C@@H]3O[C@H](COP(=O)(O)O)[C@@H](O)[C@H]3O)c3ncnc1c23 [TRICIRIBINE PHOSPHATE] | – | > 30 µM (inactive) | > 30 µM (inactive) | > 30 µM (inactive) | > 30 µM (inactive) | > 30 µM (inactive) | > 30 µM (inactive) | > 30 µM (inactive) | > 30 µM (inactive) | > 30 µM (inactive) |
| O=C(Nc1cccc(Cl)c1)Nc1ncc(CCNc2ncnc3ccsc23)s1 [SNS-314] | > 30 µM (inactive) | > 30 µM (inactive) | > 30 µM (inactive) | > 30 µM (inactive) | > 30 µM (inactive) | – | > 30 µM (inactive) | > 30 µM (inactive) | > 30 µM (inactive) | > 30 µM (inactive) |
| Cc1nc(N)sc1-c1ccnc(Nc2ccc(N3CCOCC3)cc2)n1 [CYC-116] | > 30 µM (inactive) | > 30 µM (inactive) | > 30 µM (inactive) | 0.013 µM | – | – | – | > 30 µM (inactive) | > 30 µM (inactive) | > 30 µM (inactive) |
| COc1cc2nccc(Oc3ccc(NC(=O)NC4CC4)c(Cl)c3)c2cc1C(N)=O [LENVATINIB] | > 30 µM (inactive) | > 30 µM (inactive) | > 30 µM (inactive) | – | > 30 µM (inactive) | > 30 µM (inactive) | > 30 µM (inactive) | > 30 µM (inactive) | > 30 µM (inactive) | > 30 µM (inactive) |
| Cc1c(F)cc(C(=O)NC2CC2)cc1-c1ccc(C(=O)NCC(C)(C)C)cn1 [LOSMAPIMOD] | > 30 µM (inactive) | > 30 µM (inactive) | – | > 30 µM (inactive) | > 30 µM (inactive) | > 30 µM (inactive) | > 30 µM (inactive) | > 30 µM (inactive) | > 30 µM (inactive) | > 30 µM (inactive) |
| Cc1ccc(NC(=O)c2ccc(CN3CC[C@H](N(C)C)C3)c(C(F)(F)F)c2)cc1Nc1nccc(-c2cncnc2)n1 [BAFETINIB] | – | > 30 µM (inactive) | > 30 µM (inactive) | > 30 µM (inactive) | > 30 µM (inactive) | > 30 µM (inactive) | > 30 µM (inactive) | > 30 µM (inactive) | > 30 µM (inactive) | > 30 µM (inactive) |
| O=C(c1ccc(F)c(F)c1Nc1ccc(I)cc1F)N1CC(O)([C@@H]2CCCCN2)C1 [COBIMETINIB] | > 30 µM (inactive) | > 30 µM (inactive) | > 30 µM (inactive) | > 30 µM (inactive) | > 30 µM (inactive) | > 30 µM (inactive) | > 30 µM (inactive) | > 30 µM (inactive) | > 30 µM (inactive) | – |
